From PMC8786932, “Bicyclic azetidines target acute and chronic stages of Toxoplasma gondii by inhibiting parasite phenylalanyl t-RNA synthetase” (Nature Communications, 2022)
Several values for one entry are separate records, joined by “and”; a condition that tells them apart may be missing. Equal values may be shown once. Read-outs that look alike come from different tables or passages of the source.

Legend:
[1] = molecular target: T1, recombinant wild-type TgPheRS (Toxoplasma gondii, UniProt A0A125YPN6); experiment: Malachite green aminoacylation enzyme assay, wild-type TgPheRS; assay type: biochemical; settings: for Tg PheRS enzyme assay raw signal: replicates
T1 sequence (A0A125YPN6 1-525): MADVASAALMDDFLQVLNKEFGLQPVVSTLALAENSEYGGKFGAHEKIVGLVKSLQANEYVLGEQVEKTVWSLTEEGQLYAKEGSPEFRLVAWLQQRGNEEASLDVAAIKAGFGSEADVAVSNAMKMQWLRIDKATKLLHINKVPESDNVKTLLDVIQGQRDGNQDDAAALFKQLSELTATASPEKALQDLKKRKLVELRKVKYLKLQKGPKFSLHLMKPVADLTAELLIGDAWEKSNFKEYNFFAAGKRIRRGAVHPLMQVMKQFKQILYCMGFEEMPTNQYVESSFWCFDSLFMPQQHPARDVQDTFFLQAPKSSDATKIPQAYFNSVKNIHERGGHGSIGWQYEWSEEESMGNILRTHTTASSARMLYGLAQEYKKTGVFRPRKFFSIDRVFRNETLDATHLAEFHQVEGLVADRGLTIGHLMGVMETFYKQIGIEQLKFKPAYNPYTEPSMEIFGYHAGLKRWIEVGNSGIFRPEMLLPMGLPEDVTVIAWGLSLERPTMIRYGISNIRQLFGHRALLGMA
T1 sequence (S8EZ50 1-675 partner): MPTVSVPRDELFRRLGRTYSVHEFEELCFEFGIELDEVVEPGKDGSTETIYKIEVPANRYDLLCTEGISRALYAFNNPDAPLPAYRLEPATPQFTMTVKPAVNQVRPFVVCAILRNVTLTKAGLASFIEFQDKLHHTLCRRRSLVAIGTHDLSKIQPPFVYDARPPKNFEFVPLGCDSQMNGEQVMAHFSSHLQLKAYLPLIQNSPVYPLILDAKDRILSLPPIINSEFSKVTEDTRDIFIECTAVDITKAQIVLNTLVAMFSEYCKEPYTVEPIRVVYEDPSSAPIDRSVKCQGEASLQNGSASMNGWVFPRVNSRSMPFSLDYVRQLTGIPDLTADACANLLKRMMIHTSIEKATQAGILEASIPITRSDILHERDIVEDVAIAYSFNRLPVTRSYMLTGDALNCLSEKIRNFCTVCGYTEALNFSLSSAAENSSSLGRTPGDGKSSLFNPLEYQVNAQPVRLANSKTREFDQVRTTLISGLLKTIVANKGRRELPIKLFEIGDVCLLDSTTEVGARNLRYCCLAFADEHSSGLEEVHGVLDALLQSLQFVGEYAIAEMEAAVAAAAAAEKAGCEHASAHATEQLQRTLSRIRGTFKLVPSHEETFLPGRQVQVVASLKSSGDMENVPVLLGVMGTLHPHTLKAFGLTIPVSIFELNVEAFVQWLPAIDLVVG

[2] = test system: T. gondii residual infection; experiment: ELISA of survivors and bioassay of brain homogenate into naive recipient mice; assay type: in vivo, Ifngr1-/- mice
Experimental: Testing of compounds to prevent reactivation of chronic infection was […] to test the efficacy of PheRS inhibitors against chronic infection. In both cases, male and female C57BL/6 Ifngr1^−/− mice were infected by oral gavage with 5 cysts of the ME49-Fluc strain isolated from chronically infected CBA/J mice. Compound BRD7929 was formulated at 1 mg/mL in freshly prepared compound resuspension buffer (vehicle; 10% ETOH, 4% Tween-80 in 1xPBS), aliquoted for single use and stored at −20 °C. In the first protocol, at 48 h post-infection, animals were given sulfadiazine (0.25 g/L in drinking water) for 20 days post-infection to prevent death during acute infection and to allow establishment of chronic infection. Two days after completion of the sulfadiazine treatment, one cohort of mice were treated once a day with 10 mg/kg BRD7929 by oral gavage for 16 days and control mice received an equal volume of vehicle during the same time frame. Animals were monitored for survival and weight loss for 30 days post-treatment. […] All mice were monitored for survival and weight loss every two days for the duration of treatment and for an additional >20 days post-treatment. […] Recipient mice were monitored for 20 days for survival, weight loss, and seroconversion by ELISA.

[3] = test system: T. gondii RHΔhxgprtΔku80 (RHΔΔ); experiment: Tachyzoite lytic assay, wild-type parent; assay type: cell-based, Toxoplasma gondii; settings: for % Parasite Growth: RHΔΔ; for EC50: Toxoplasma gondii
Experimental: Parasite growth on HFF monolayers was monitored using a 96-well plate-based lytic assay modified from a previously described protocol. […]. Freshly harvested parasites (7.5 × 10^4 /well) were added to each well (in 100uL volume) to reach the final concentration range (10 μM to 0.0005 μM, 200 μL/well, 0.1% DMSO). Plates were incubated for 72 h at 37 °C then culture medium was aspirated and monolayers were fixed with 100% ethanol (ETOH) for 5 min at room temperature (RT). After rinsing with water, wells were stained with 0.1% crystal violet solution for 10 min at RT. Plates were rinsed with water, air dried, and absorption quantified on the Cytation 3 multi-mode imager at 570 nm wavelength. % parasite growth was calculated as 100−[(OD value for infected cultures at each concentration of compound/average OD value for no compound and no parasite infection) × 100]. EC50 values were calculated based on the mean of three biological replicates with each replicate containing two technical replicates.

Q: With COc1ccc(NC(=O)N2CCCCN3[C@H](CN(C)C)[C@H](c4ccc(C#Cc5ccccc5)cc4)[C@@H]3C2)cc1 [BRD7929] as the molecule, how does the IC50 [1] read?
A: The IC50 was 31 nM.

Q: And the “Tg PheRS enzyme assay raw signal” value ([1]; BRD7929 0.000001 μM)?
A: Its value is 0.2010 (2×) and 0.1986.

Q: And the “Tg PheRS enzyme assay raw signal” value ([1]; BRD7929 0.000010 μM)?
A: The value was 0.1950 and 0.1940 and 0.1990.

Q: And the “Tg PheRS enzyme assay raw signal” value ([1]; BRD7929 0.000100 μM)?
A: The value was 0.1980 and 0.1900 and 0.1990.

Q: And the “Tg PheRS enzyme assay raw signal” value ([1]; BRD7929 0.001000 μM)?
A: The value was 0.1940 and 0.1790 and 0.1870.

Q: What about the “Tg PheRS enzyme assay raw signal” value ([1]; BRD7929 0.010000 μM) of the same molecule?
A: The value was 0.1697 and 0.1750 and 0.1724.

Q: And the “Tg PheRS enzyme assay raw signal” value ([1]; BRD7929 0.100000 μM)?
A: The value was 0.1290 and 0.1332 and 0.1400.

Q: What about the “Tg PheRS enzyme assay raw signal” value ([1]; BRD7929 1.000000 μM) of the same molecule?
A: The value was 0.1100 and 0.1180 and 0.1090.

Q: What about the “Tg PheRS enzyme assay raw signal” value ([1]; BRD7929 10.000000 μM) of the same molecule?
A: Its value is 0.0928 and 0.1144 and 0.1108.

Q: And the “Tg PheRS enzyme assay raw signal” value ([1]; BRD7929 100.000000 μM)?
A: The value was 0.1051 and 0.0940 and 0.1066.

Q: And the “enzyme assay readout (raw, malachite green, 620 nm)” value ([1]; WT, BRD7929 100.000000 μM)?
A: Its value is 0.1051 and 0.0940 and 0.1066.

Q: What about the “bioassay of brains of surviving treated mice in naive recipients” value ([2]; oral challenge model survivors, recipients monitored 20 days) of the same molecule?
A: The value was “All recipient mice survived and remained seronegative”.

Q: And the “bioassay of brain homogenate of the surviving animal” value ([2]; reactivation model survivor)?
A: The value was “failed to detect any residual infection”.

Q: What about the “% Parasite Growth” value ([3]; 3.33333333 uM, replicate wells) of the same molecule?
A: Its value is -62.34% and -8.91% and -41.4% and -6.78% and -65.46% and -56.23% and -31.38% and -99.25% and -132.9% and -155.42% and -68.19% and -11.78%.

Q: What about the “% Parasite Growth” value ([3]; 0.00152416 uM) of the same molecule?
A: The value was 68.94% and 89.11% and 79.46% and 70.31% and 60.77%.

Q: And the “% Parasite Growth” value ([3]; 0.00457247 uM)?
A: The value was 84.64% and 87.57% and 82.22% and 46.33% and 48.4%.

Q: What about the “% Parasite Growth” value ([3]; 0.01371742 uM) of the same molecule?
A: The value was 76.37% and 86.87% and 80.22% and 58.24% and 60.43%.

Q: And the EC50 ([3]; 72 h, read-out: EC50, RHΔΔ)?
A: Its EC50 is 82 nM.

Q: What about the EC50 ([3]; read-out: EC50, RHΔΔ) of the same molecule?
A: The EC50 was 53 nM.

Q: And the EC50 ([3]; Table S4, Wild type, read-out: EC50 (growth restriction))?
A: The EC50 was 36 nM.
